Assay results taken from patent publication US8476298B2 (Exelixis, Inc., priority 2003, dated 2013).
Read-outs that look alike come from different tables or passages of the source.

What was measured:
[1] = molecular target: T1, Flt-3 (baculovirus expressed human Flt-3 kinase domain R571-S993) (Homo sapiens, UniProt P36888); assay: biochemical; conditions: read-out: flt3 IC50;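 also: Luciferase-coupled chemiluminescent kinase assay, activity read as percent ATP left after a 3 h reaction at room temperature, ATP near KM, 10-point dose-response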
T1 construct: human Flt-3 kinase domain R571-S993; host or cells: baculovirus expression
T1 sequence (P36888 571-993): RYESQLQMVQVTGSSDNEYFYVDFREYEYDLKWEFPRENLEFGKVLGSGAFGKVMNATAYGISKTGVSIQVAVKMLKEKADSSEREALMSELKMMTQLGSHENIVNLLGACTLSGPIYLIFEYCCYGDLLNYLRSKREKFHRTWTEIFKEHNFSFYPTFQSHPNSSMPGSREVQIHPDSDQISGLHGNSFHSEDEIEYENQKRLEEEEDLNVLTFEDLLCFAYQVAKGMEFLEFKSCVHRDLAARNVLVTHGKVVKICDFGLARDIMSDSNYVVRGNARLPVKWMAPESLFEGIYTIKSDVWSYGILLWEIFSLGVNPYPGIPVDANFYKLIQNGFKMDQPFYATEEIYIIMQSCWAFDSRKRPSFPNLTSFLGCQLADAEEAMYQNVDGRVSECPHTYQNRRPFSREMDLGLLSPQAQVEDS

[2] = molecular target: T2, c-Met (baculovirus expressed human c-Met kinase domain P948-S1343) (Homo sapiens, UniProt P08581); assay: c-Met Luciferase-Coupled Chemiluminescent Kinase assay (LCCA); type: biochemical;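 also: kinase activity read as percent ATP left after reaction, by luciferase-luciferin chemiluminescence, with 1 µM ATP and 1 µM poly-EY substrate, 2 h at ambient temperature, 10-point dose-response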
T2 construct: human c-Met kinase domain P948-S1343; host or cells: baculovirus expression
T2 sequence (P08581 1011-1343 limits assumed): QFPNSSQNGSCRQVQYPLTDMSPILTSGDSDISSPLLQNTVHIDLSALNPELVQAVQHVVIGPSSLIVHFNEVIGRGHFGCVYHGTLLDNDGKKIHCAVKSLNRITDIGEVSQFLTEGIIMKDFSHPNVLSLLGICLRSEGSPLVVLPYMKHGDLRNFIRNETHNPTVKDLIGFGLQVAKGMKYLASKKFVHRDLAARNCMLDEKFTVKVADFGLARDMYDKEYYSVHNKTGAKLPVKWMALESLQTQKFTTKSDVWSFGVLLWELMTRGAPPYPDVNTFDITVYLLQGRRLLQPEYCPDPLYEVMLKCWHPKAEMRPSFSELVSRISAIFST

[3] = molecular target: T3, KDR (baculovirus expressed human KDR kinase domain D807-V1356) (Homo sapiens, UniProt P35968); assay: biochemical;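 also: Luciferase-coupled chemiluminescent kinase assay, activity read as percent ATP left after 4 h reaction at ambient temperature, ATP near KM, 10-point dose-response in 384-well plates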
T3 construct: human KDR kinase domain D807-V1356; host or cells: baculovirus expression
T3 sequence (P35968 807-1356): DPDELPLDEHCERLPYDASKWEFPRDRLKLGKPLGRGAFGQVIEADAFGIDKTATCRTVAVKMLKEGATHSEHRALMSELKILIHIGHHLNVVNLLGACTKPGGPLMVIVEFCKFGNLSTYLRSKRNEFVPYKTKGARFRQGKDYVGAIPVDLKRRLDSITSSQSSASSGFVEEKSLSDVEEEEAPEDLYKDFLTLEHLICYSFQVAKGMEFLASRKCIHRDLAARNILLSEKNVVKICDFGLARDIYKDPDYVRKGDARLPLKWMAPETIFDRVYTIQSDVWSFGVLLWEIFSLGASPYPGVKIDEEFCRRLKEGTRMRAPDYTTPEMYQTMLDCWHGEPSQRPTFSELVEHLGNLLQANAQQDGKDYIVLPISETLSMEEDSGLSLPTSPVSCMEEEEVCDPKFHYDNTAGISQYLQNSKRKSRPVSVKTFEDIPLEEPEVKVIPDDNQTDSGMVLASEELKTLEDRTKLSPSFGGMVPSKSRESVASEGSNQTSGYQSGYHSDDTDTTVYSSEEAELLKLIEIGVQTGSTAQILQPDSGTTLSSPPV

[4] = Table 4, inhibition as IC50 class

Row | IC50 [1, 4] | IC50 [2, 4] | IC50 [3, 4] | IC50 [1] | IC50 [2] | IC50 [3] | Compound
1 |  |  |  | < 50 nM | < 50 nM | < 50 nM | COc1cc2c(Oc3ccc(NC(=O)[C@]4(C(=O)Nc5ccc(F)cc5)C[C@@H]4C)cc3F)ccnc2cc1OCCCN1CCN(C)CC1 [Example 354, (1R,2S)-N-{3-fluoro-4-[(6-(methyloxy)-7-{[3-(4-methylpiperazin-1-yl)propyl]oxy}quinolin-4-yl)oxy]phenyl}-N′-(4-fluorophenyl)-2-methylcyclopropane-1,1-dicarboxamide]
2 |  |  |  | < 50 nM | < 50 nM | < 50 nM | COc1cc2c(Oc3ccc(NC(=O)[C@]4(C(=O)Nc5ccc(F)cc5)C[C@H]4C)cc3F)ccnc2cc1OCCCN1CCN(C)CC1 [Example 355, (1R,2R)-N-{3-fluoro-4-[(6-(methyloxy)-7-{[3-(4-methylpiperazin-1-yl)propyl]oxy}quinolin-4-yl)oxy]phenyl}-N′-(4-fluorophenyl)-2-methylcyclopropane-1,1-dicarboxamide]
3 |  |  |  | < 50 nM | < 50 nM | < 50 nM | COc1cc2c(Oc3ccc(NC(=O)[C@]4(C(=O)Nc5ccc(F)cc5)C[C@H]4C)cc3F)ccnc2cc1OCCCN1CCNCC1 [Example 356, (1R,2R)-N-[3-fluoro-4-({6-(methyloxy)-7-[(3-piperazin-1-ylpropyl)oxy]quinolin-4-yl}oxy)phenyl]-N′-(4-fluorophenyl)-2-methylcyclopropane-1,1-dicarboxamide]
4 |  |  |  | < 50 nM | < 50 nM | < 50 nM | COc1cc2c(Oc3ccc(NC(=O)C4(C(=O)Nc5ccc(F)cc5)CC4)cc3F)ccnc2cc1OCCCN1CCN(C(C)C)CC1 [Example 357, N-(3-fluoro-4-{[7-({3-[4-(1-methylethyl)piperazin-1-yl]propyl}oxy)-6-(methyloxy)quinolin-4-yl]oxy}phenyl)-N′-(4-fluorophenyl)cyclopropane-1,1-dicarboxamide]
5 |  |  |  | < 50 nM | < 50 nM | < 50 nM | CCN(CC)CCCOc1cc2nccc(Oc3ccc(NC(=O)[C@]4(C(=O)Nc5ccc(F)cc5)C[C@H]4C)cc3F)c2cc1OC [Example 359, (1R,2R)-N-(4-{[7-{[3-(diethylamino)propyl]oxy}-6-(methyloxy)quinolin-4-yl]oxy}-3-fluorophenyl)-N′-(4-fluorophenyl)-2-methylcyclopropane-1,1-dicarboxamide]
6 |  |  |  | < 50 nM | < 50 nM | < 50 nM | CCN(CC)CCOc1cc2nccc(Oc3ccc(NC(=O)[C@]4(C(=O)Nc5ccc(F)cc5)C[C@H]4C)cc3F)c2cc1OC [Example 360, (1R,2R)-N-(4-{[7-{[2-(diethylamino)ethyl]oxy}-6-(methyloxy)quinolin-4-yl]oxy}-3-fluorophenyl)-N′-(4-fluorophenyl)-2-methylcyclopropane-1,1-dicarboxamide]
7 |  |  |  | < 50 nM | < 50 nM | < 50 nM | CCN(CC)CCCOc1cc2nccc(Oc3ccc(NC(=O)[C@]4(C(=O)Nc5ccc(F)cc5)C[C@@H]4C)cc3F)c2cc1OC [Example 361, (1R,2S)-N-(4-{[7-{[3-(diethylamino)propyl]oxy}-6-(methyloxy)quinolin-4-yl]oxy}-3-fluorophenyl)-N′-(4-fluorophenyl)-2-methylcyclopropane-1,1-dicarboxamide]
8 |  |  |  | < 50 nM | < 50 nM | < 50 nM | CCN(CC)CCOc1cc2nccc(Oc3ccc(NC(=O)[C@]4(C(=O)Nc5ccc(F)cc5)C[C@@H]4C)cc3F)c2cc1OC [Example 362, (1R,2S)-N-(4-{[7-{[2-(diethylamino)ethyl]oxy}-6-(methyloxy)quinolin-4-yl]oxy}-3-fluorophenyl)-N′-(4-fluorophenyl)-2-methylcyclopropane-1,1-dicarboxamide]
9 |  |  |  |  | < 50 nM | < 50 nM | CCN(CC)CCOc1cc2ncnc(Oc3ccc(NC(=O)C4(C(=O)Nc5ccc(F)cc5)CCC4)cc3F)c2cc1OC [Example 363, N-(4-{[7-{[2-(diethylamino)ethyl]oxy}-6-(methyloxy)quinazolin-4-yl]oxy}-3-fluorophenyl)-N′-(4-fluorophenyl)cyclobutane-1,1-dicarboxamide]
10 |  |  |  |  | 50 to 500 nM | < 50 nM | COc1cc2nccc(Oc3ccc(NC(=O)C4(C(=O)Nc5cccc(CN6CCCCC6)c5)CC4)cc3)c2cc1OC [Example 400, N-(4-{[6,7-bis(methyloxy)quinolin-4-yl]oxy}phenyl)-N′-[3-(piperidin-1-ylmethyl)phenyl]cyclopropane-1,1-dicarboxamide]
11 |  |  |  |  | < 50 nM | < 50 nM | COc1cc2nccc(Oc3ccc(NC(=O)C4(C(=O)Nc5cccc(CN6CCCC6)c5)CC4)cc3)c2cc1OC [Example 401, N-(4-{[6,7-bis(methyloxy)quinolin-4-yl]oxy}phenyl)-N′-[3-(pyrrolidin-1-ylmethyl)phenyl]cyclopropane-1,1-dicarboxamide]

Second part, the molecule before the results:

Row | Compound | IC50 [1, 4] | IC50 [2, 4] | IC50 [3, 4] | IC50 [1] | IC50 [2] | IC50 [3]
12 | COc1cc(CNC(=O)C(=O)Nc2ccc(Oc3ccnc4cc(OCC5CCNCC5)c(OC)cc34)c(F)c2)cc(OC)c1 [Example 269, N-{[3,5-bis(methyloxy)phenyl]methyl}-N′-[3-fluoro-4-({6-(methyloxy)-7-[(piperidin-4-ylmethyl)oxy]quinolin-4-yl}oxy)phenyl]ethanediamide] | < 50 nM | < 50 nM | < 50 nM |  |  | 
13 | CCN(CC)CCCOc1cc2c(Oc3ccc(NC(=O)C4(C(=O)Nc5ccc(F)cc5)CC4)cc3F)ccnc2cc1OC [Example 344, N-(4-{[6-{[3-(diethylamino)propyl]oxy}-7-(methyloxy)quinolin-4-yl]oxy}-3-fluorophenyl)-N′-(4-fluorophenyl)cyclopropane-1,1-dicarboxamide] |  |  |  | < 50 nM | < 50 nM | < 50 nM
14 | CCN(CC)CCOc1cc2c(Oc3ccc(NC(=O)C4(C(=O)Nc5ccc(F)cc5)CC4)cc3F)ccnc2cc1OC [Example 345, N-(4-{[6-{[2-(diethylamino)ethyl]oxy}-7-(methyloxy)quinolin-4-yl]oxy}-3-fluorophenyl)-N′-(4-fluorophenyl)cyclopropane-1,1-dicarboxamide] |  |  |  | < 50 nM | < 50 nM | < 50 nM
15 | COc1cc2c(Oc3ccc(NC(=O)C4(C(=O)Nc5ccc(F)cc5)CC4)cc3F)ccnc2cc1OCCCN1CCN(C(=O)OC(C)(C)C)CC1 [Example 346, 1,1-dimethylethyl 4-(3-{[4-[(2-fluoro-4-{[(1-{[(4-fluorophenyl)amino]carbonyl}cyclopropyl)carbonyl]amino}phenyl)oxy]-6-(methyloxy)quinolin-7-yl]oxy}propyl)piperazine-1-carboxylate] |  |  |  | 50 to 500 nM | < 50 nM | < 50 nM
16 | CCN(CC)CCOc1cc2ncnc(Oc3ccc(NC(=O)[C@]4(C(=O)Nc5ccc(F)cc5)C[C@H]4C)cc3F)c2cc1OC [Example 348, (1R,2R)-N-(4-{[7-{[2-(diethylamino)ethyl]oxy}-6-(methyloxy)quinazolin-4-yl]oxy}-3-fluorophenyl)-N′-(4-fluorophenyl)-2-methylcyclopropane-1,1-dicarboxamide] |  |  |  | 50 to 500 nM | < 50 nM | < 50 nM
17 | CCN(CC)CCCOc1cc2ncnc(Oc3ccc(NC(=O)C4(C(=O)Nc5ccc(F)cc5)CC4)cc3F)c2cc1OC [Example 349, N-(4-{[7-{[3-(diethylamino)propyl]oxy}-6-(methyloxy)quinazolin-4-yl]oxy}-3-fluorophenyl)-N′-(4-fluorophenyl)cyclopropane-1,1-dicarboxamide] |  |  |  | < 50 nM | < 50 nM | < 50 nM
18 | COc1cc2c(Oc3ccc(NC(=O)C4(C(=O)Nc5ccc(F)cc5)CC4)cc3F)ccnc2cc1OCCCN1CCN(C(C)=O)CC1 [Example 350, N-(4-{[7-{[3-(4-acetylpiperazin-1-yl)propyl]oxy}-6-(methyloxy)quinolin-4-yl]oxy}-3-fluorophenyl)-N′-(4-fluorophenyl)cyclopropane-1,1-dicarboxamide] |  |  |  | < 50 nM | < 50 nM | < 50 nM
19 | COc1cc2c(Oc3ccc(NC(=O)[C@]4(C(=O)Nc5ccc(F)cc5)C[C@H]4C)cc3F)ccnc2cc1OCCCN1CCN(C(=O)OC(C)(C)C)CC1 [Example 351, 1,1-dimethylethyl 4-(3-{[4-[(2-fluoro-4-{[((1R,2R)-1-{[(4-fluorophenyl)amino]carbonyl}-2-methylcyclopropyl)carbonyl]amino}phenyl)oxy]-6-(methyloxy)quinolin-7-yl]oxy}propyl)piperazine-1-carboxylate] |  |  |  | 50 to 500 nM | < 50 nM | < 50 nM
20 | COc1cc2nccc(Oc3ccc(NC(=O)C4(C(=O)Nc5ccc(F)cc5)CN(Cc5ccccc5)C4)cc3)c2cc1OC [Example 352, N-(4-{[6,7-bis(methyloxy)quinolin-4-yl]oxy}phenyl)-N′-(4-fluorophenyl)-1-(phenylmethyl)azetidine-3,3-dicarboxamide] |  |  |  | 500 to 5000 nM | < 50 nM | 500 to 5000 nM
21 | COc1cc2nccc(Oc3ccc(NC(=O)C4(C(=O)Nc5ccc(F)cc5)CNC4)cc3)c2cc1OC [Example 353, N-(4-{[6,7-bis(methyloxy)quinolin-4-yl]oxy}phenyl)-N′-(4-fluorophenyl)azetidine-3,3-dicarboxamide] |  |  |  | 500 to 5000 nM | 50 to 500 nM | 500 to 5000 nM
